Experimental data published in patent US6444681B1, “Methods and compositions for treating Raynaud's Phenomenon and scleroderma” (The Ohio State University Research Foundation, priority 2000, dated 2002).
Where two headings read alike, the source gives them in different places.

How the values were obtained:
[1] = tested on: small dermal arteries/arterioles from healthy controls and SSc subjects; assay: α2C-AR blockade of UK 14,304 vasoconstriction in human dermal arteries from control and SSc subjects; type: cell-based; conditions: for Kb: Homo sapiens, topical, versus UK 14,304, read-out: calculated dissociation constant, −log Kb (converted)
Method: Arterioles were dissected from the deep dermal plexus of the biopsies and any side branches tied. […] The arterioles were cannulated with glass micropipettes and placed in a microvessel chamber as previously describe. The arterioles were maintained in no-flow state at a constant transmural pressure (PTM)of 40 mmHg. The chamber was superfused with buffer solution (37° C., pH 7.4, gassed with 16% O2-5% CO2-balance N2) and placed on stage of an inverted microscope for continuous monitoring of internal diameter using a video camera and video dimension analyzer.
In order to determine the influence of α2C-AR blockade, paired arteries from each subject were used. […] In the other artery of each pair, increasing concentrations of the α2C-AR antagonist (MK 912) was administered before the response to UK 14,304 was determined.

Mouse Tail Artery = assay: Antagonism of UK 14,304-induced vasoconstriction in isolated pressurised distal mouse tail artery; type: cell-based
From the text: Male mice (C57BL6) were euthanized by CO2 asphyxiation. Proximal and/or distal segments of tail artery were then rapidly removed and placed in cold Krebs-Ringer bicarbonate solution (in mM): 118.3 NaCl, 4.7 KCl, 1.2 MgSO4, 1.2 KH2PO4, 2.5 CaCl2, 25.0 NaHCO3, 11. glucose (control solution). The small arteries were cannulated at both ends with glass micropipettes, secured using 12-0 nylon monofilament suture and placed in a microvascuiar chamber (Living Systems, Burlington, Vt.). The arteries were maintained at a constant transmural pressure of 60 mmHg in the absence of flow. The chamber was superfused with control solution and maintained at 37° C., pH 7.4, and gassed with 16% O2-5% CO2-balance N2. The chamber was placed on the stage of an inverted microscope (X20, Nikon TMS-F, Japan) connected to a video camera (Panasonic, CCTV camera, Japan). The vessel image was projected onto a video monitor and the internal diameter continuously determined by a video dimension analyzer (Living Systems Instrumentation, Burlington Vt.) and monitored using a BIOPAC (Santa Barbara, Calif.) data acquisition system (Gateway Dimensions Pentium Computer).
Small arteries were allowed to equilibrate for 30-40 min at a transmural pressure (PTM) of 60 mmHg before addition of α1 and α2-AR agonists and antagonists. Concentration-effect curves to the selective α1-AR agonist, phenylephrine, or the selective α2-AR agonist, UK 14,304 (brimonidine, 5-bromo-N-(4,5-dihydro-1H-imidazol-2-yl)-6-quinoxalinamine) were generated by increasing the concentration of the agonists in half-log increments, once the constriction to the previous concentration had stabilized. Following completion of the concentration-effect curve, the influence of the agonists was terminated by repeatedly exchanging the buffer solution and allowing the artery to return to its stable baseline level.
To evaluate the effect of selective α2-AR antagonists on vasoconstriction, concentration-effect curves to UK 14,304 were determined under control conditions and in the presence of the selective α2A-AR antagonist, BRL 44408 (100 and 1000 nM), the selective α2B-AR antagonist ARC 0239 (50 nM) or the selective α2C-AR antagonist MK 912 (0.3 nM) (Table 1). When these receptor antagonists were used, the preparations were incubated for 30 min with the drugs prior to, and also during, exposure of the arteries to the agonists. When analyzing the influence of cold on α-AR responsiveness, the temperature of the superfusate was decreased to 28° C. for 30 min prior to commencing a concentration effect curve to the constrictor agonists. This provides sufficient time for the effect of cold on adrenergic reactivity to stabilize.
Vasomotor responses were expressed as a percentage change in internal diameter (ID) prior to administrating the agent. Because of the phasic behavior of the vasomotion in distal. tail arteries, the signal was electronically averaged (BIOPAC software, smoothing factor of 2000) in order to obtain diameter measurements. Functional data is expressed as means±SEM for n number of experiments, where n equals the number of animals from which blood vessels were studied. Antagonist dissociation constants (KD) were determined either from Arunlakshana and Schild plots or according to the formula: KD=[Ant]/(CR-1), where [Ant] is the concentration of antagonist, and CR the ratio of agonist-concentrations producing equal responses in the presence and absence of the antagonist. […] Statistical evaluation of the data was performed by Student's t-test for either paired or unpaired observations. When more than two means were compared, analysis of variance was used. If a significant F value was found, Scheffe's test for multiple comparisons was employed to identify differences among groups. Values were considered to be statistically different when P was less than 0.05.

α-2B = molecular target: T1, α-2B (Homo sapiens, UniProt P18089); conditions: cited from earlier work
T1 sequence (P18089 1-450): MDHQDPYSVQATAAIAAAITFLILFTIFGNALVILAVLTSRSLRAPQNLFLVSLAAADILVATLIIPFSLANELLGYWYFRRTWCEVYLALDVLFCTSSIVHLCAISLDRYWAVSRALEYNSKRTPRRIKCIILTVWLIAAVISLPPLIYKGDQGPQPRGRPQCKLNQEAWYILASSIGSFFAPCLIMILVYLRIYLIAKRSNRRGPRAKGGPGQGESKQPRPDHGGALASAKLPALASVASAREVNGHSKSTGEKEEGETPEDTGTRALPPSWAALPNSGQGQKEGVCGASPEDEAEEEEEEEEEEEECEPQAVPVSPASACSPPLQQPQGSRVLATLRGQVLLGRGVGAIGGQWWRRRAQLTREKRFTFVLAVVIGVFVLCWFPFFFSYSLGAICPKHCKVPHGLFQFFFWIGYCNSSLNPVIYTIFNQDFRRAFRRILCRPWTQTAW

α-2A = molecular target: T2, α-2A (Homo sapiens, UniProt P08913); conditions: cited from earlier work
T2 sequence (P08913 1-465): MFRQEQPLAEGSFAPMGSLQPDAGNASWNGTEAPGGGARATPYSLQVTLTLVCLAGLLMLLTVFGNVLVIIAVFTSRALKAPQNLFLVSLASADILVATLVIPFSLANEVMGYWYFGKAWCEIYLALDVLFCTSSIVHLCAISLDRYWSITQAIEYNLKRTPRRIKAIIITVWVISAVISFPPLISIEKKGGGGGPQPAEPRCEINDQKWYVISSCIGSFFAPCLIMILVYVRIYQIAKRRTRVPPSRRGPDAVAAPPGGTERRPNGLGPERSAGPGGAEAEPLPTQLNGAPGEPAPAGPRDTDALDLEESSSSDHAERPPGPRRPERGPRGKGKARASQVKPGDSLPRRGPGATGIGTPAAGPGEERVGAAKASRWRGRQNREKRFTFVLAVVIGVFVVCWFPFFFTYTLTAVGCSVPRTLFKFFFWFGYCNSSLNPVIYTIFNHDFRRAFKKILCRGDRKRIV

**Q.** For `CN1CCC2(CCN3CCc4c(oc5ccccc45)C3C2)N(C)C1=O` (stereo not drawn) [MK 912], which Kb ([1]; SSc arteries) is on record?
**A.** 1.23 pM

**Q.** What about the Kb ([1]; control arteries) of the same compound?
**A.** 468 pM

**Q.** And the “effect on vasoconstrictor response to α2-AR stimulation” value ([1]; SSc arteries, extremely low concentrations (e.g. 10^−11M))?
**A.** reduced the vasoconstrictor response

**Q.** What about the “concentration needed to inhibit responses to UK 14,304” value ([1]; control arteries) of the same compound?
**A.** 10^−9 M

**Q.** And the “concentration needed in control arteries relative to SSc arteries” value ([1]; control versus SSc arteries)?
**A.** 100 fold

**Q.** And the “−log KD” value (Mouse Tail Artery; 28° C. (cold), n=4)?
**A.** 10.9±0.17

**Q.** And the Kd (Mouse Tail Artery; 28° C. (cold), n=4, read-out: KD)?
**A.** 14 pM

**Q.** And the Kd (Mouse Tail Artery; 28° C. (cold), versus UK 14,304, distal tail artery, read-out: KD Mouse Tail Artery 28° C.)?
**A.** > 14 pM

**Q.** What about the “effect on cold-induced amplification of the α2-AR response” value (Mouse Tail Artery; 28° C. versus 37° C., UK 14,304) of the same compound?
**A.** selectively abolished

**Q.** And the Kd (Mouse Tail Artery; 37° C. (warm), versus UK 14,304, distal tail artery, read-out: KD Mouse Tail Artery 37° C.)?
**A.** > 300 pM

**Q.** What about the “expected shift in concentration-effect curves generated by α2C-AR stimulation” value (Mouse Tail Artery; based on the Table 1 KD, antagonist at 0.3 nM) of the same compound?
**A.** ~6 fold

**Q.** And the “effect on vasoconstrictor response to UK 14,304” value (Mouse Tail Artery; cold (28° C.), BRL 44408 100 and 1000 nM, ARC 0239 50 nM, MK912 3×10^−10M)?
**A.** dramatically inhibited

**Q.** What about the “effect on vasoconstriction to the α2-AR agonist UK 14,304” value (Mouse Tail Artery; warm temperatures (37° C.), BRL 44408 100 and 1000 nM, ARC 239 50 nM, MK 912 0.3 nM) of the same compound?
**A.** not inhibited

**Q.** What about the Kd (α-2B) of the same compound?
**A.** 330 pM

**Q.** What about the Kd (α-2A) of the same compound?
**A.** 1800 pM
